Assay results as given in publication PMC9090141 (Pediatric blood & cancer, 2021).
“Also recorded” adds a separate entry of the source. Where a name gives a salt, the structure may show the parent alone. Read-outs that look alike come from different tables or passages of the source.

System: pediatric patients with recurrent or refractory solid and CNS tumors
[1] = Dose Level 1, 80 mg/m^2, Part A, 6 evaluable
[2] = Dose Level 2, 100 mg/m^2, Part A, 5 evaluable
[3] = Dose Level 3, 125 mg/m^2, Part A, 4 evaluable
[4] = Dose Level 4, 150 mg/m^2, Part A, 5 evaluable
[5] = Dose Level 4, 150 mg/m^2, Part PK (expansion cohort), 5 evaluable
[6] = cycle 1, All Dose Levels (N=25)
[7] = cycle 1, Dose Level 1 (N=6), 80 mg/m^2
[8] = cycle 1, Dose Level 2 (N=5), 100 mg/m^2

**Q.** `COc1cccc(OCCCN)c1-c1cc(Nc2cnc(C#N)cn2)n[nH]1` [prexasertib, Prexasertib mesylate monohydrate] was tested. Which “Grade 4 neutropenia, patients” value (22/25 patients) did it give?
**A.** 88%

**Q.** What about the “No. of Patients with Cycle 1 DLTs” value [1] of the same molecule?
**A.** 0

**Q.** What about the “No. of Patients with Later-Cycle DLTs” value [1] of the same molecule?
**A.** 0

**Q.** What about the “No. of Patients with Cycle 1 DLTs” value [2] of the same molecule?
**A.** 0

**Q.** And the “No. of Patients with Later-Cycle DLTs” value [2]?
**A.** 0

**Q.** What about the “No. of Patients with Cycle 1 DLTs” value [3] of the same molecule?
**A.** 0

**Q.** What about the “No. of Patients with Later-Cycle DLTs” value [3] of the same molecule?
**A.** 0

**Q.** What about the “No. of Patients with Cycle 1 DLTs” value [4] of the same molecule?
**A.** 0

**Q.** What about the “No. of Patients with Later-Cycle DLTs” value [4] of the same molecule?
**A.** 0

**Q.** And the “No. of Patients with Cycle 1 DLTs” value [5]?
**A.** 0

**Q.** What about the “No. of Patients with Later-Cycle DLTs” value [5] of the same molecule?
**A.** 0

**Q.** And the “maximum tolerated dose (MTD)” value (IV days 1 and 15 of 28-day cycle, up to 150 mg/m^2)?
**A.** not defined; also recorded: not reached; also recorded: did not reach

**Q.** And the “Alanine aminotransferase increased, All” value [6]?
**A.** 5 (20) No. (%)

**Q.** What about the “Alanine aminotransferase increased, ≥ Grade 3” value [6] of the same molecule?
**A.** 1 (4) No. (%)

**Q.** And the “Anemia, All” value [6]?
**A.** 19 (76) No. (%)

**Q.** What about the “Anemia, ≥ Grade 3” value [6] of the same molecule?
**A.** 3 (12) No. (%)

**Q.** And the “Anorexia, All” value [6]?
**A.** 3 (12) No. (%)

**Q.** What about the “Anorexia, ≥ Grade 3” value [6] of the same molecule?
**A.** 0 (0) No. (%)

**Q.** What about the “Aspartate aminotransferase increased, All” value [6] of the same molecule?
**A.** 4 (16) No. (%)

**Q.** What about the “Aspartate aminotransferase increased, ≥ Grade 3” value [6] of the same molecule?
**A.** 0 (0) No. (%)

**Q.** And the “Diarrhea, All” value [6]?
**A.** 4 (16) No. (%)

**Q.** What about the “Diarrhea, ≥ Grade 3” value [6] of the same molecule?
**A.** 0 (0) No. (%)

**Q.** And the “Electrocardiogram QT corrected interval prolonged, All” value [6]?
**A.** 9 (36) No. (%)

**Q.** What about the “Electrocardiogram QT corrected interval prolonged, ≥ Grade 3” value [6] of the same molecule?
**A.** 0 (0) No. (%)

**Q.** And the “Fatigue, All” value [6]?
**A.** 6 (24) No. (%)

**Q.** And the “Fatigue, ≥ Grade 3” value [6]?
**A.** 0 (0) No. (%)

**Q.** What about the “Headache, All” value [6] of the same molecule?
**A.** 3 (12) No. (%)

**Q.** And the “Headache, ≥ Grade 3” value [6]?
**A.** 0 (0) No. (%)

**Q.** What about the “Hypokalemia, All” value [6] of the same molecule?
**A.** 5 (20) No. (%)

**Q.** And the “Hypokalemia, ≥ Grade 3” value [6]?
**A.** 0 (0) No. (%)

**Q.** And the “Hypophosphatemia, All” value [6]?
**A.** 4 (16) No. (%)

**Q.** And the “Hypophosphatemia, ≥ Grade 3” value [6]?
**A.** 0 (0) No. (%)

**Q.** What about the “Infusion-related reaction, All” value [6] of the same molecule?
**A.** 3 (12) No. (%)

**Q.** What about the “Infusion-related reaction, ≥ Grade 3” value [6] of the same molecule?
**A.** 0 (0) No. (%)

**Q.** What about the “Lymphocyte count decreased, All” value [6] of the same molecule?
**A.** 12 (48) No. (%)

**Q.** And the “Lymphocyte count decreased, ≥ Grade 3” value [6]?
**A.** 6 (24) No. (%)

**Q.** And the “Myalgia, All” value [6]?
**A.** 3 (12) No. (%)

**Q.** What about the “Myalgia, ≥ Grade 3” value [6] of the same molecule?
**A.** 0 (0) No. (%)

**Q.** What about the “Nausea, All” value [6] of the same molecule?
**A.** 5 (20) No. (%)

**Q.** And the “Nausea, ≥ Grade 3” value [6]?
**A.** 0 (0) No. (%)

**Q.** What about the “Neutrophil count decreased, All” value [6] of the same molecule?
**A.** 25 (100) No. (%)

**Q.** And the “Neutrophil count decreased, ≥ Grade 3” value [6]?
**A.** 25 (100) No. (%)

**Q.** What about the “Platelet count decreased, All” value [6] of the same molecule?
**A.** 21 (84) No. (%)

**Q.** What about the “Platelet count decreased, ≥ Grade 3” value [6] of the same molecule?
**A.** 6 (24) No. (%)

**Q.** And the “Vomiting, All” value [6]?
**A.** 6 (24) No. (%)

**Q.** And the “Vomiting, ≥ Grade 3” value [6]?
**A.** 0 (0) No. (%)

**Q.** What about the “White blood cell decreased, All” value [6] of the same molecule?
**A.** 24 (96) No. (%)

**Q.** What about the “White blood cell decreased, ≥ Grade 3” value [6] of the same molecule?
**A.** 17 (68) No. (%)

**Q.** And the “Alanine aminotransferase increased, All” value [7]?
**A.** 2 (33) No. (%)

**Q.** And the “Alanine aminotransferase increased, ≥ Grade 3” value [7]?
**A.** 0 (0) No. (%)

**Q.** What about the “Anemia, All” value [7] of the same molecule?
**A.** 5 (83) No. (%)

**Q.** And the “Anemia, ≥ Grade 3” value [7]?
**A.** 0 (0) No. (%)

**Q.** And the “Anorexia, All” value [7]?
**A.** 2 (33) No. (%)

**Q.** And the “Anorexia, ≥ Grade 3” value [7]?
**A.** 0 (0) No. (%)

**Q.** What about the “Aspartate aminotransferase increased, All” value [7] of the same molecule?
**A.** 0 (0) No. (%)

**Q.** What about the “Aspartate aminotransferase increased, ≥ Grade 3” value [7] of the same molecule?
**A.** 0 (0) No. (%)

**Q.** And the “Diarrhea, All” value [7]?
**A.** 2 (33) No. (%)

**Q.** And the “Diarrhea, ≥ Grade 3” value [7]?
**A.** 0 (0) No. (%)

**Q.** And the “Electrocardiogram QT corrected interval prolonged, All” value [7]?
**A.** 2 (33) No. (%)

**Q.** What about the “Electrocardiogram QT corrected interval prolonged, ≥ Grade 3” value [7] of the same molecule?
**A.** 0 (0) No. (%)

**Q.** What about the “Fatigue, All” value [7] of the same molecule?
**A.** 0 (0) No. (%)

**Q.** And the “Fatigue, ≥ Grade 3” value [7]?
**A.** 0 (0) No. (%)

**Q.** What about the “Headache, All” value [7] of the same molecule?
**A.** 0 (0) No. (%)

**Q.** And the “Headache, ≥ Grade 3” value [7]?
**A.** 0 (0) No. (%)

**Q.** And the “Hypokalemia, All” value [7]?
**A.** 0 (0) No. (%)

**Q.** What about the “Hypokalemia, ≥ Grade 3” value [7] of the same molecule?
**A.** 0 (0) No. (%)

**Q.** And the “Hypophosphatemia, All” value [7]?
**A.** 1 (17) No. (%)

**Q.** And the “Hypophosphatemia, ≥ Grade 3” value [7]?
**A.** 0 (0) No. (%)

**Q.** And the “Infusion-related reaction, All” value [7]?
**A.** 1 (17) No. (%)

**Q.** And the “Infusion-related reaction, ≥ Grade 3” value [7]?
**A.** 0 (0) No. (%)

**Q.** And the “Lymphocyte count decreased, All” value [7]?
**A.** 3 (50) No. (%)

**Q.** And the “Lymphocyte count decreased, ≥ Grade 3” value [7]?
**A.** 2 (33) No. (%)

**Q.** And the “Myalgia, All” value [7]?
**A.** 0 (0) No. (%)

**Q.** What about the “Myalgia, ≥ Grade 3” value [7] of the same molecule?
**A.** 0 (0) No. (%)

**Q.** And the “Nausea, All” value [7]?
**A.** 1 (17) No. (%)

**Q.** What about the “Nausea, ≥ Grade 3” value [7] of the same molecule?
**A.** 0 (0) No. (%)

**Q.** What about the “Neutrophil count decreased, All” value [7] of the same molecule?
**A.** 6 (100) No. (%)

**Q.** What about the “Neutrophil count decreased, ≥ Grade 3” value [7] of the same molecule?
**A.** 6 (100) No. (%)

**Q.** And the “Platelet count decreased, All” value [7]?
**A.** 4 (67) No. (%)

**Q.** And the “Platelet count decreased, ≥ Grade 3” value [7]?
**A.** 1 (17) No. (%)

**Q.** And the “Vomiting, All” value [7]?
**A.** 1 (17) No. (%)

**Q.** And the “Vomiting, ≥ Grade 3” value [7]?
**A.** 0 (0) No. (%)

**Q.** And the “White blood cell decreased, All” value [7]?
**A.** 5 (83) No. (%)

**Q.** And the “White blood cell decreased, ≥ Grade 3” value [7]?
**A.** 4 (67) No. (%)

**Q.** And the “Alanine aminotransferase increased, All” value [8]?
**A.** 2 (40) No. (%)

**Q.** What about the “Alanine aminotransferase increased, ≥ Grade 3” value [8] of the same molecule?
**A.** 1 (20) No. (%)

**Q.** What about the “Anemia, All” value [8] of the same molecule?
**A.** 3 (60) No. (%)

**Q.** What about the “Anemia, ≥ Grade 3” value [8] of the same molecule?
**A.** 1 (20) No. (%)

**Q.** What about the “Anorexia, All” value [8] of the same molecule?
**A.** 0 (0) No. (%)

**Q.** What about the “Anorexia, ≥ Grade 3” value [8] of the same molecule?
**A.** 0 (0) No. (%)

**Q.** What about the “Aspartate aminotransferase increased, All” value [8] of the same molecule?
**A.** 3 (60) No. (%)

**Q.** And the “Aspartate aminotransferase increased, ≥ Grade 3” value [8]?
**A.** 0 (0) No. (%)

**Q.** What about the “Diarrhea, All” value [8] of the same molecule?
**A.** 1 (20) No. (%)

**Q.** And the “Diarrhea, ≥ Grade 3” value [8]?
**A.** 0 (0) No. (%)

**Q.** What about the “Electrocardiogram QT corrected interval prolonged, All” value [8] of the same molecule?
**A.** 1 (20) No. (%)

**Q.** What about the “Electrocardiogram QT corrected interval prolonged, ≥ Grade 3” value [8] of the same molecule?
**A.** 0 (0) No. (%)

**Q.** What about the “Fatigue, All” value [8] of the same molecule?
**A.** 2 (40) No. (%)

**Q.** And the “Fatigue, ≥ Grade 3” value [8]?
**A.** 0 (0) No. (%)

**Q.** And the “Headache, All” value [8]?
**A.** 0 (0) No. (%)
